Patent US12274680B2, “Treatment of benign prostatic hypertrophy with capsinoids” (priority 2022, dated 2025)

Columns and labels:
[1] = tested on: BPH; conditions: longer term studies; cited from earlier work
[2] = tested on: bladder outlet obstruction (BOO) due to benign prostatic hypertrophy (BPH); assay: Case observation of one patient with BOO due to BPH (self-catheterization frequency, urine flow, PSA, prostate size); assay type: in vivo
Procedure: A patient suffering from BOO due to BPH was experiencing increasing symptoms of BOO from 2018 to 2022 in addition to increasing levels of prostate specific antigen (PSA). This patient preferred the occasional self-catheterization to surgical treatment of the BPH. From 2018 to 2021 the self-catheterization frequency associated with 8 mg of silodosin (an alpha-1 antagonist/blocker) orally daily was about once every 6 months. […] By January 2022, the self-catheterization was weekly. The patient commented that most of the times self-catheterization was necessary, followed a decreased intake of spicy foods, which were an almost daily ingestion for this patient. The patient was instructed to ingest 40,000 SHU (Scoville Heat Units) daily in the form of a cayenne nutraceutical capsule obtained over the counter (OTC) at a pharmacy. The cayenne capsule is a powder of ground chili pepper with a claimed total capsinoid activity of 40,000 SHU resulting from the mixture of capsinoid chemicals in the pepper. […] These clinical findings are consistent with the dramatic improvement in BOO following treatment with oral capsinoids.

COc1cc2nc(N3CCN(C(=O)c4ccco4)CC3)nc(N)c2cc1OC [prazosin]
urinary flow rates and subjective symptom scores [1]: significant improvements

O=C(NC1CCN(CCc2c[nH]c3ccccc23)CC1)c1ccccc1 [indoramin]
urinary flow rates and subjective symptom scores [1]: significant improvements

COc1cc2nc(N3CCN(C(=O)C4COc5ccccc5O4)CC3)nc(N)c2cc1OC (stereo not drawn) [doxazosin]
urinary flow rates and subjective symptom scores [1]: significant improvements

COc1cc2nc(N3CCN(C(=O)C4CCCO4)CC3)nc(N)c2cc1OC (stereo not drawn) [terazosin]
urinary flow rates and subjective symptom scores [1]: significant improvements

C[C@H](Cc1cc2c(c(C(N)=O)c1)N(CCCO)CC2)NCCOc1ccccc1OCC(F)(F)F [silodosin]
adverse event ([2]; silodosin 8 mg orally daily, led to dose decrease to 4 mg): severe cardiovascular adverse event | self-catheterization frequency ([2]; silodosin dose decreased to 4 mg, by January 2022): weekly
